According to patent US12686690B2, “Macrocyclic urea orexin receptor agonists” (Merck Sharp & Dohme LLC, priority 2020, dated 2026):

Target: T1, hOX2R (Homo sapiens, UniProt O43614)
T1 construct: expressed in transfected cells; host or cells: CHO cells (G418 selection)
T1 sequence (O43614 1-444): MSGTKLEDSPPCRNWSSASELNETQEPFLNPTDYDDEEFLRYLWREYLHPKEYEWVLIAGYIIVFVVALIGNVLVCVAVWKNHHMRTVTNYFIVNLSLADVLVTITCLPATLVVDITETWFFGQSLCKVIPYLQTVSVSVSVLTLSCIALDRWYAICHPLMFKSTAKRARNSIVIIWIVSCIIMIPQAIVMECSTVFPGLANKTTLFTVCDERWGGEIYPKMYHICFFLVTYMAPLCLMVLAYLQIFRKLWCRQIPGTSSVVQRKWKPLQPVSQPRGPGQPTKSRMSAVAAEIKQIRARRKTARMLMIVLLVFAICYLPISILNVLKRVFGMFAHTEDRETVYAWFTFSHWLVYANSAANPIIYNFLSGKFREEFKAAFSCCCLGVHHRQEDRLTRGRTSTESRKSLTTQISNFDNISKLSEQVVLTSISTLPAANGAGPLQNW
Experiment: hOX2R IPone assay (orexin receptor agonism)
Type: cell-based
Settings: IPone readout; for hOX2R_Ipone max %act: maximal activation; for EC50: orexin receptor agonist, read-out: hOX2R_IPone EC50

hOX2R_Ipone max %act [%]	EC50 [nM]	SMILES
101.5	0.6	CCN1C(=O)NC(CCC(F)(F)F)CCOCCOc2nc(cn3ccnc23)-c2cc(ncc2OC)[C@H]1C (single isomer, unassigned) [Example 6B]
100.8	4.15	CCN1C(=O)N[C@@H](CCC(C)(F)F)CCOCCOc2nc(cn3ncnc23)-c2ccnc(c2)[C@H]1C [Example 180]
102	0.6	CCN1C(=O)N[C@@H](CCC(F)(F)F)CCCCCOc2nc(cn3ccnc23)-c2nc(ccc2OC)[C@H]1C [Example 97, (12R,16R)-13-ethyl-8-methoxy-12-methyl-16-(3,3,3-trifluoropropyl)-12,13,16,17,18,19,20, 21-octahydro-6,23:11,7-di(azeno) imidazo[2,1-c][1,4,13,15]oxatriaza-cyclohenicosin-14(15H)-one]
101.1	64.1	CCN1C(=O)N[C@@H](CCC(F)(F)F)CCCCCOc2nc(cn3ccnc23)C2=NC=C(O2)C1C (single isomer, unassigned) [Example 104B]
61.5	814	CCN1C(=O)NCCc2nc(no2)COc2nc(cn3ccnc23)-c2cccc(c2)[C@H]1C [Example 24, (R,27E,54Z)-10-ethyl-11-methyl-3-oxa-8,10-diaza-5(3,5)-oxadiazola-2(6,8)-imidazo[1,2-a]pyrazina-1(1,3)-benzenacyclo-undecaphan-9-one]
101.1	0.9	CCN1C(=O)NC(COC)CCCCCOc2nc(cn3ccnc23)-c2cc(ncc2OC)[C@H]1C (single isomer, unassigned) [Example 58B]
100.3	1.32	CCN1C(=O)NC(CCC(F)(F)F)CCCCCOc2cc(n3nccc3c2)-c2ccnc(c2)C1C [Example 156, (3R,7R,E)-4-ethyl-3-methyl-7-(3,3,3-trifluoropropyl)-13-oxa-4,6-diaza-1(5,7)-pyrazolo[1,5-a]pyridina-2(4,2)-pyridinacyclotridecaphan-5-one]
99.0	1.7	CCN1C(=O)N[C@@H](CCC(F)(F)F)CCCCCOc2nc(cn3ccnc23)-c2cc(cnc2C)[C@H]1C [Example 78, (12R,16R)-13-ethyl-8,12-dimethyl-16-(3,3,3-trifluoropropyl)-12,13,16,17,18,19,20, 21-octahydro-6,23-(azeno)-11,7-(metheno)imidazo[2,1-c][1,4,9,13,15]oxatet-raazacyclohenicosin-14(15H)-one]
100.6	4.25	CCN1C(=O)NC(COC)CCCCCOc2nc(cn3ccnc23)-c2cc(ncc2F)[C@H]1C (stereo partly drawn) [Example 199, (3R,E)-4-ethyl-25-fluoro-7-(methoxymethyl)-3-methyl-13-oxa-4,6-diaza-1(6,8)-imidazo[1,2-a]pyrazina-2(4,2)-pyridinacyclotridecaphan-5-one]
100.1	3.3	CCN1C(=O)N[C@@H](CCC(F)(F)F)CCCCCCc2nc(cn3ccnc23)-c2cc(ncc2OC)[C@H]1C [Example 81, (12R,16R)-13-ethyl-8-methoxy-12-methyl-16-(3,3,3-trifluoropropyl)-12,13,15,16,17,18,19, 20,21,22-decahydro-14H-6,23-(azeno)-11,7-(metheno) imidazo[1,2-l][1,3,6,12]tetraazacy-clohenicosin-14-one]
99.26	71.2	CCN1C(=O)NC(C#N)CCCCCOc2nc(cn3ccnc23)-c2cc(ncc2OC)[C@H]1C (single isomer, unassigned) [Example 224]
102.4	0.9	CCN1C(=O)NC(c2nc(C)cs2)CCCCCOc2nc(cn3ccnc23)-c2cc(ncc2OC)[C@H]1C (stereo partly drawn) [Example 218, (3R,E)-4-ethyl-2^5-methoxy-3-methyl-7-(4-methylthiazol-2-yl)-13-oxa-4,6-diaza-1(6,8)-imidazo[1,2-a]pyrazina-2(4,2)-pyridinacyclotridecaphan-5-one]
100.9	6	CCN1C(=O)NC(C)CCCCCOc2nc(cn3ccnc23)-c2cc(ncc2OC)[C@H]1C (single isomer, unassigned) [Example 9B]
67.1	10100	CCN1C(=O)N[C@@H](CCC(F)(F)F)CCCCCOc2nc(cn3ccnc23)-c2cc(c(C)cn2)C1C (single isomer, unassigned) [Example 92A]
102	15.1	CCN1C(=O)N[C@@H](CCC(F)(F)F)CCCCCOc2cc(nn3cc(C)nc23)-c2cc(ncc2OC)[C@H]1C [Example 166, (3R,7R,E)-4-ethyl-25-methoxy-12,3-dimethyl-7-(3,3,3-trifluoropropyl)-13-oxa-4,6-diaza-1(6,8)-imidazo[1,2-b]pyridazina-2(4,2)-pyridinacyclotridecaphan-5-one]
101.5	55.7	CCN1C(=O)NC(CC(C)C)CCCCCOc2nc(cn3ccnc23)-c2cc(ncc2OC)[C@H]1C (single isomer, unassigned) [Example 53A]
99.3	0.5	CCN1C(=O)NC(CC2CC2(F)F)CCCCCOc2nc(cn3ccnc23)-c2cc(ncc2OC)[C@H]1C (single isomer, unassigned) [Example 59C]
108.6	0.51	CCN1C(=O)NC(CC(C)(F)F)CCCCCOc2cn3ccnc3c(n2)-c2cc(ncc2OC)C1C [Example 151, (3R,7R,E)-7-(2,2-difluoropropyl)-4-ethyl-25-methoxy-3-methyl-13-oxa-4,6-diaza-1(6,8)-imidazo[1,2-a]pyrazina-2(4,2)-pyridinacyclotridecaphan-5-one]
96.86	0.74	CCN1C(=O)N[C@@H](CCC(C)(F)F)CCOCCOc2nc(nn3ccnc23)-c2cc(ncc2OC)[C@H]1C [Example 155, (3R,7S,E)-7-(3,3-difluorobutyl)-4-ethyl-25-methoxy-3-methyl-10,13-dioxa-4,6-diaza-1(2,4)-imidazo[2,1-f][1,2,4]triazina-2(4,2)-pyridinacyclotridecaphan-5-one]
101.2	8.6	CCN1C(=O)N[C@@H](CCC(F)(F)F)CCCCCOc2nc(nc3ccnn23)-c2cc(ncc2OC)[C@H]1C [Example 98, (11R,15R)-12-ethyl-7-methoxy-11-methyl-15-(3,3,3-trifluoropropyl)-11,12,15,16,17,18,19, 20-octahydro-5,22-(azeno)-10,6-(metheno)pyrazolo[1,5-c][1,3,5,10,13,15] oxapentaazacycloheni-cosin-13(14H)-one]
102.2	0.9	CCN1C(=O)N[C@@H](CCC(F)(F)F)CCCCCOc2nc(cn3ccnc23)-c2cc(cnc2OC)[C@H]1C [Example 28, (3R,7R,E)-4-ethyl-22-methoxy-3-methyl-7-(3,3,3-trifluoropropyl)-13-oxa-4,6-diaza-1(6,8)-imidazo[1,2-a]pyrazina-2(3,5)-pyridinacyclotridecaphan-5-one]
100.1	8.48	CCN1C(=O)N[C@@H](CCC(F)(F)F)CCCCCc2cc(cn3ccnc23)-c2nc(ccc2OC)[C@H]1C [Example 138, (3R,7R,Z)-4-ethyl-23-methoxy-3-methyl-7-(3,3,3-trifluoropropyl)-4,6-diaza-1(6,8)-imidazo[1,2-a]pyridina-2(2,6)-pyridinacyclododecaphan-5-one]
102.2	1.2	CCN1C(=O)NC(CC#N)CCCCCOc2nc(cn3ccnc23)-c2cc(ncc2OC)[C@H]1C (stereo partly drawn) [Example 194, 2-((3R,E)-4-ethyl-25-methoxy-3-methyl-5-oxo-13-oxa-4,6-diaza-1(6,8)-imidazo[1,2-a]pyrazina-2(4,2)-pyridinacyclotridecaphane-7-yl)acetonitrile]
101.8	0.29	CCN1C(=O)NC(CCC(F)F)CCCCCOc2nc(cn3ccnc23)-c2cc(ncc2OC)[C@H]1C(F)(F)F (stereo partly drawn) [Example 208, (3S,E)-7-(3,3-difluoropropyl)-4-ethyl-25-methoxy-3-(trifluoromethyl)-13-oxa-4,6-diaza-1(6,8)-imidazo[1,2-a]pyrazina-2(4,2)-pyridinacyclotridecaphan-5-one]
102	3.87	C[C@@H]1c2cc(ccn2)-c2cn3ccnc3c(n2)OCCCCC[C@H](CCC(F)(F)F)NC(=O)N1C [Example 158, (3R,7R,E)-3,4-dimethyl-7-(3,3,3-trifluoropropyl)-13-oxa-4,6-diaza-1(6,8)-imidazo[1,2-a]pyrazina-2(4,2)-pyridinacyclotridecaphan-5-one]
99.5	4.9	CCC1CCCCCOc2nc(cn3ccnc23)-c2cc(ncc2OC)[C@@H](C)N(CC)C(=O)N1 (single isomer, unassigned) [Example 52B]
99.8	1.1	CCN1C(=O)NC(CC2(C(F)F)CC2)CCCCCOc2nc(cn3ccnc23)-c2cc(ncc2OC)[C@H]1C (single isomer, unassigned) [Example 70B]

SMILES	hOX2R_Ipone max %act [%]	EC50 [nM]
CCN1C(=O)NCCN2CCCC(C2)Oc2nc(cn3ccnc23)-c2cccc(c2)[C@H]1C (mixture of isomers) [Example 5, (7R)-8-ethyl-7-methyl-18-oxa-8,10,13,21,24,26-hexaazapentacyclo[17.6.1.1~ 2,6~.1~13,17~.0~20,24~] octacosa-1(25),2(28),3,5,19(26),20,22-heptaen-9-one (non-preferred name)]	93.82	1380
